According to patent US20220031680A1, “Donecopride As Neuroprotective Agent In the Treatment of Neurodegenerative Diseases” (priority 2018, published 2022):

Tests used:
[1] = tested on: rat primary hippocampal neurons injured with Aβ 1-42; assay: Survival and neurite network of MAP-2 neurons in primary hippocampal neurons injured with Aβ1-42; assay type: cell-based
Procedure: Rat hippocampal neurons were cultured as described by Callizot et al. (2013) J. Neurosci. Res. 91706-716. Pregnant female rats of 17 days gestation (Rats Wistar; Janvier Labs France) were killed using a deep anesthesia with CO2 chamber followed by a cervical dislocation. Then, fetuses were removed from the uterus and immediately placed in ice-cold L15 Leibovitz medium with a 2% penicillin (10,000 U/ml) and streptomycin (10 mg/ml) solution (PS) and 1% bovine serum albumin (BSA). Hippocampal neurons were treated for 20 min at 37° C. with a trypsin-EDTA solution at a final concentration of 0.05% trypsin and 0.02% EDTA. The dissociation was stopped by adding Dulbecco's modified Eagle's medium (DMEM) with 4.5 g/l of glucose, containing DNAse I grade II (final concentration 0.5 mg/ml) and 10% fetal calf serum (FCS). Cells were mechanically dissociated by three forced passages through the tip of a 10-ml pipette and then centrifuged at 515×g for 10 min at 4° C. The supernatant was discarded, and the pellet was resuspended in a defined culture medium consisting of Neurobasal medium with a 2% solution of B27 supplement, 2 mmol/l of L-glutamine, 2% of PS solution, and 10 ng/ml of brain-derived neurotrophic factor (BDNF). Viable cells were counted in a Neubauer cytometer, using the trypan blue exclusion test. Cells were seeded at a density of 20,000 per well in 96-well plates precoated with poly-L-lysine and cultured at 37° C. in an air (95%)-CO2 (5%) incubator. The medium was changed every 2 days.
(§1) The hippocampal neurons were exposed with Aβ solutions (see below) after 17 days of culture. The Aβ1-42 preparation was done following the procedure described by Callizot et al. (2013) J. Neurosci. Res. 91706-716. Briefly, Aβ1-42 peptide was dissolved in the defined culture medium mentioned above, at an initial concentration of 40 μM. This solution was gently agitated for 3 days at 37° C. in the dark and immediately used after being properly diluted in culture medium to the concentrations used (20 μM (plate 1) or 2.5 μM (plate 2) corresponding to 2 μM or 0.25 μM of oligomers (AβO) respectively).
(§2) Donecopride fumarate was solved in culture medium and preincubated 1 h before Aβ application. Aβ1-42 preparation was added to a final concentration of 20 or 2.5 μM (=2 μM or 0.25 μM of AβO, evaluated by automatic Western Blot) diluted in control medium in presence of Donecopride.
Donecopride fumarate (Donecopride) was tested on one culture in a 96 well plate (6 wells per conditions). The compound was preincubated one hour before Aβ application. The following conditions were assessed:
(§3) 24 hours after intoxication, the hippocampal neurons were fixed by a cold solution of ethanol (95%) and acetic acid (5%) for 5 min at −20° C. After permeabilization with 0.1% of saponin, cells were incubated for 2 h with:
a) chicken polyclonal antibody anti microtubule-associated-protein 2 (MAP-2), diluted at 1/1000 in PBS containing 1% fetal calf serum and 0.1% of saponin (this antibody allows the specific staining of neuronal cell bodies and neurites; and allow the study of neuronal cell death and neurite network).
(§4) For each condition, 30 pictures (representative of the whole well area) per well were taken using ImageXpress (Molecular Devices) at 20× magnification. All images were taken with the same acquisition parameters. Analyses were performed automatically by using Custom Module Editor (Molecular Devices).
(§5) The following endpoints were assessed: • Total number of neurons (neuron survival, number of MAP-2 positive neurons) • Neurite network (in μm of MAP-2 positive neurons) • area of tau in neurons (μm^2, overlapping with MAP-2 positive neurons).
All values are expressed as mean+/−SEM. Statistical analysis was performed by one-way ANOVA, followed by PLSD Fisher's test, p<0.05 were considered significant.
Rat hippocampal neurons were cultured as described by Callizot et al. (2013) J. Neurosci. Res. 91:706-716. […]

Tau (AT100) = assay: Phosphorylation of Tau (AT100) in MAP-2 hippocampal neurons injured with Aβ1-42; assay type: cell-based, rat; conditions: Aβ1-42 injured hippocampal neurons; for effect on Tau hyperphosphorylation: Example 4
Procedure: as §1, §2, §3
b) mouse monoclonal antibody anti-phospho Tau (AT100) at dilution of 1/400 in PBS containing 1% fetal calf serum and 0.1% of saponin.
as §4, §5
(§6) Injury: The hippocampal neurons were exposed with Aβ solutions (see below) after 17 days of culture. The Aβ1-42 preparation was done following the procedure described by Callizot et al. (2013) J. Neurosci. Res. 91:706-716. The batch number of the Aβ1-42 used in this study contains 10% of oligomers (quantification by WB as performed in Combes et al. (2015) J. Neurosci. Res. 93:633-643). Briefly, Aβ1-42 peptide was dissolved in the defined culture medium mentioned above, at an initial concentration of 40 μmol/1. This solution was gently agitated for 3 days at 37° C. in the dark and immediately used after being properly diluted in culture medium to the concentrations used (20 μmol/l or 2.5 μmol/l corresponding to 2 μmol/l or 0.25 μmol/l of oligomers (AβO) respectively). Aβ1-42 preparation was added to a final concentration of 20 or 2.5 μmol/l (respectively 2 μmol/l or 0.25 μmol/l of AβO, determined by automatic WB) diluted in control medium in presence of the compounds.
Immunostaining: MAP-2/AT100—After fixation and permeabilization, cells were incubated for 2 hours with: • a chicken polyclonal antibody anti microtubule-associated-protein 2 (MAP-2) at dilution of 1/1000 in PBS containing 1% fetal calf serum and 0.1% saponin (this antibody stains specifically cell bodies and neurites, allowing study of neuronal cell death and neurite network); and • a mouse monoclonal antibody anti-phospho Tau (AT100) at dilution of 1/100 in PBS containing 1% fetal calf serum and 0.1% saponin.
For each condition, 30 pictures (representative of the whole well area) per well were taken using ImageXpress® (Molecular Devices) with 20× magnification. All images were generated using the same acquisition parameters. From images, analyses were directly and automatically performed by Custom Module Editor® (Molecular Devices). The following read-outs were investigated: • Total number of neurons (neuron survival, number of MAP-2 positive neurons) • Neurite network (in μm of MAP-2 positive neurons) • Area of AT100 (μm^2, overlapping with MAP-2 positive neurons).

[2] = tested on: rat primary hippocampal neurons injured with Aβ 1-42; assay: Number of synapses (PSD95/SYN overlap) in primary hippocampal neurons injured with Aβ1-42; assay type: cell-based
Procedure: as §1, §2, §3
a) mouse monoclonal antibody anti post synaptic density 95 kDa (PSD95) at a dilution of 1/100 in PBS containing 1% fetal calf serum and 0.1% of saponin.
b) Rabbit polyclonal antibody anti-synaptophysin (SYN) at the dilution of 1/100 in PBS containing 1% fetal calf serum and 0.1% of saponin.
For each condition, 40 pictures per well were taken using ImageXpress (Molecular Devices) with 40× magnification. All images were taken with the same acquisition parameters.
Synapses evaluation was performed automatically by using Custom module editor (Molecular Devices).
The following endpoints were assessed: • Total number of synapses (overlapping between PSD95/SYN).
To assess the formation of synapses, the distribution of PSD-95, a post-synaptic marker, and synaptophysin, a pre-synaptic marker, was studied. A structure positive for both PD-95 and synaptophysin staining was considered as a synapse.
as §6
Immunostaining: PSD95 and SYN—After fixation and permeabilization, cells were incubated for 2 hours with: • mouse monoclonal antibody anti post synaptic density 95 kDa (PSD95) at dilution of 1/200 in PBS containing 1% fetal calf serum and 0.1% saponin; • rabbit polyclonal antibody anti-synaptophysin (SYN) at the dilution of 1/100 in PBS containing 1% fetal calf serum and 0.1% saponin.
For each condition, 40 pictures per well were taken using ImageXpress (Molecular Devices) with 40× magnification. All images were taken with the same conditions. Synapses evaluation were performed automatically by using Custom Module Editor® (Molecular Devices). The following endpoints were assessed: • Number of synapses (overlapping between PSD95/SYN)

[3] = Aβ1-42 injured hippocampal neurons, Example 4

| Structure (SMILES) | neuroprotective effect (survival, neurite and synaptic network) [1, 3] | effect on Tau hyperphosphorylation (Tau (AT100)) | doses increasing the number of synapses ([2]; Aβ1-42 injured hippocampal neurons (FIG. 6)) | concentration with neuroprotective effect on synapses ([2]; Aβ1-42 injured hippocampal neurons, Example 5 (FIG. 10)) | doses with neuroprotective effect on survival ([1]; Aβ1-42 injured hippocampal neurons (FIG. 5A)) | neurite length normalized by number of neurons (neuritic growth) ([1]; Aβ1-42 injured hippocampal neurons (FIG. 5C)) | effect on neurite network [1, 3] | concentration up to which active (survival and neurite network) ([1]; Aβ1-42 injured hippocampal neurons, Example 5 (FIG. 9A,B,C)) | concentration with significant reduction of Tau hyperphosphorylation (Tau (AT100); Example 5 (FIG. 9D)) |
| --- | --- | --- | --- | --- | --- | --- | --- | --- | --- |
| COc1cc(N)c(Cl)cc1C(=O)CCC1CCN(CC2CCNCC2)CC1 [MR31176] | neuroprotective effect at high concentrations | significant effect on Tau hyperphosphorylation was also observed at high concentration | – | – | – | – | – | – | – |
| COc1cc(N)c(Cl)cc1C(=O)CCC1CCN(CC2CCCCCC2)CC1 [MR31192] | very strong neuroprotective effect at very low doses | important effect | 1 to 5 nM | 500 pM | 1 to 5 nM | neurotrophic effect | very large effect was also observed on neurite network at every tested dose | ≤ 500 µM | 100 pM |
